Reference: article PMC9186362, “Design and biological evaluation of substituted 5,7-dihydro-6H-indolo[2,3-c]quinolin-6-one as novel selective Haspin inhibitors” (Journal of Enzyme Inhibition and Medicinal Chemistry, 2022)

Columns and labels:
HCT116 spheroids = experiment: 3D spheroid viability; format: cell-based, human; settings: 2.5, 5 and 10 µM single dose, 7 days
Description: (§1) U-2 OS cells were seeded at 5000 cells per well and HCT116 at 1500 cells per well, in 96-well black ULA plates (Ultra Low Adherence, Corning). After centrifugation at 200 g for 10 min, spheroids were incubated at 37 °C for 3 days in order to reach 400 µm in diameter. Compounds were then added at a single dose (2.5, 5, or 10 μM) and cell viability was measured after 7 days using the CellTiter-Glo® 3D Cell Viability Assay (Promega) following the manufacturer's protocol. Luminescence was measured using an EnVision® plate reader (Perkin Elmer).

U-2 OS spheroids = experiment: 3D spheroid viability; format: cell-based, human; settings: 2.5, 5 and 10 µM single dose, 7 days
Description: as §1

LIMK1 = target: T1, LIMK1 (Homo sapiens, UniProt P53667); experiment: LanthaScreen Binding - Eu-anti-His; settings: read-out: Percentage of inhibition
T1 construct: purchased Life Technologies (SelectScreen service)
Description: (§2) We further evaluated the selectivity profile of compound 55 on a larger panel of kinases (SelectScreen Whole Panel, Life Technologies). The inhibition profile of 55, evaluated at 1 μM, is depicted on a dendrogram on Figure 3 where kinases inhibited by a minimum of 80% are shown. A full list of the kinases tested is shown on Table S1 in supplementary information.

CDK8/cyclin C = target: T2, CDK8/cyclin C (Homo sapiens, UniProt P49336); experiment: LanthaScreen Binding - Eu-anti-His; settings: read-out: Percentage of inhibition
T2 construct: purchased Life Technologies
Description: as §2

AMPK (A2/B2/G1) = target: T3, AMPK (A2/B2/G1) (Homo sapiens, UniProt P54646); experiment: LanthaScreen Binding - Eu-anti-His; settings: read-out: Percentage of inhibition
T3 construct: purchased Life Technologies (SelectScreen service)
Description: as §2

CAMKK1 (CAMKKA) = target: T4, CAMKK1 (CAMKKA) (Homo sapiens, UniProt Q8N5S9); experiment: LanthaScreen Binding - Eu-anti-His; settings: read-out: Percentage of inhibition
T4 construct: purchased Life Technologies (SelectScreen)
Description: as §2

ULK3 = target: T5, ULK3 (Homo sapiens, UniProt Q6PHR2); experiment: LanthaScreen Binding - Eu-anti-His; settings: read-out: Percentage of inhibition
T5 construct: purchased Life Technologies (SelectScreen Whole Panel service)
Description: as §2

STK33 = target: T6, STK33 (Homo sapiens, UniProt Q9BYT3); experiment: LanthaScreen Binding - Eu-anti-His; settings: read-out: Percentage of inhibition
T6 construct: purchased Life Technologies (SelectScreen Whole Panel service)
Description: as §2

AMPK (A2/B2/G2) = target: T7, AMPK (A2/B2/G2) (Homo sapiens, UniProt P54646); experiment: LanthaScreen Binding - Eu-anti-His; settings: read-out: Percentage of inhibition
T7 construct: purchased Life Technologies (SelectScreen service)
Description: as §2

STK39 (STLK3) = target: T8, STK39 (STLK3) (Homo sapiens, UniProt Q9UEW8); experiment: LanthaScreen Binding - Eu-anti-His; settings: read-out: Percentage of inhibition
T8 construct: purchased Life Technologies (SelectScreen service)
Description: as §2

EPHA3 = EPHA3 (Homo sapiens, UniProt P29320); experiment: LanthaScreen Binding - Eu-anti-His; settings: read-out: Percentage of inhibition
Description: as §2

MAP2K1 (MEK1) = target: T9, MAP2K1 (MEK1) (Homo sapiens, UniProt Q02750); experiment: LanthaScreen Binding - Eu-anti-His; settings: read-out: Percentage of inhibition
T9 construct: purchased Life Technologies (SelectScreen Whole Panel)
Description: as §2

STK16 (PKL12) = target: T10, STK16 (PKL12) (Homo sapiens, UniProt O75716); experiment: LanthaScreen Binding - Eu-anti-His; settings: read-out: Percentage of inhibition
T10 construct: purchased Life Technologies (SelectScreen Whole Panel)
Description: as §2

[1] = target: T11, MAP3K7/MAP3K7IP1 (TAK1-TAB1) (Homo sapiens, UniProt O43318); experiment: LanthaScreen Binding - Eu-anti-His; settings: read-out: Percentage of inhibition
T11 construct: purchased Life Technologies (SelectScreen Whole Panel)
Description: as §2

WNK1 = WNK1 (Homo sapiens, UniProt Q9H4A3); experiment: LanthaScreen Binding - Eu-anti-His; settings: read-out: Percentage of inhibition
Description: as §2

MAP2K2 (MEK2) = target: T12, MAP2K2 (MEK2) (Homo sapiens, UniProt P36507); experiment: LanthaScreen Binding - Eu-anti-His; settings: read-out: Percentage of inhibition
T12 construct: purchased Life Technologies
Description: as §2

RIPK2 = RIPK2 (Homo sapiens, UniProt O43353); experiment: LanthaScreen Binding - Eu-anti-His; settings: read-out: Percentage of inhibition
Description: as §2

CDK9/cyclin K = CDK9/cyclin K (Homo sapiens, UniProt P50750); experiment: LanthaScreen Binding - Eu-anti-His; settings: read-out: Percentage of inhibition
Description: as §2

MAP2K6 (MKK6) = target: T13, MAP2K6 (MKK6) (Homo sapiens, UniProt P52564); experiment: LanthaScreen Binding - Eu-anti-His; settings: read-out: Percentage of inhibition
T13 construct: purchased Life Technologies (SelectScreen Whole Panel service)
Description: as §2

CLK4 = target: T14, CLK4 (Homo sapiens, UniProt Q9HAZ1); experiment: LanthaScreen Binding - Eu-anti-His; settings: read-out: Percentage of inhibition
T14 construct: purchased Life Technologies (SelectScreen Whole Panel)
Description: as §2

AMPK (A1/B1/G3) = target: T15, AMPK (A1/B1/G3) (Homo sapiens, UniProt Q13131); experiment: LanthaScreen Binding - Eu-anti-His; settings: read-out: Percentage of inhibition
T15 construct: purchased Life Technologies (SelectScreen service)
Description: as §2

MAPK8 (JNK1) = target: T16, MAPK8 (JNK1) (Homo sapiens, UniProt P45983); experiment: LanthaScreen Binding - Eu-anti-His; settings: read-out: Percentage of inhibition
T16 construct: purchased Life Technologies (SelectScreen Whole Panel service)
Description: as §2

[2] = target: T17, MAP2K1 (MEK1) S218D S222D (Homo sapiens, UniProt Q02750, S218D/S222D); experiment: LanthaScreen Binding - Eu-anti-His; settings: read-out: Percentage of inhibition
T17 construct: purchased Life Technologies (SelectScreen Whole Panel)
Description: as §2

MAPK15 (ERK7) = MAPK15 (ERK7) (Homo sapiens, UniProt Q8TD08); experiment: LanthaScreen Binding - Eu-anti-His; settings: read-out: Percentage of inhibition
Description: as §2

BMPR2 = target: T18, BMPR2 (Homo sapiens, UniProt Q13873); experiment: LanthaScreen Binding - Eu-anti-His; settings: read-out: Percentage of inhibition
T18 construct: purchased Life Technologies (SelectScreen Whole Panel)
Description: as §2

[3] = target: T19, MAP2K6 (MKK6) S207E T211E (Homo sapiens, UniProt P52564, S207E/T211E); experiment: LanthaScreen Binding - Eu-anti-His; settings: read-out: Percentage of inhibition
T19 construct: purchased Life Technologies (SelectScreen Whole Panel service)
Description: as §2

TEC = target: T20, TEC (Homo sapiens, UniProt P42680); experiment: LanthaScreen Binding - Eu-anti-His; settings: read-out: Percentage of inhibition
T20 construct: purchased Life Technologies
Description: as §2

[4] = target: T21, PIK3CB/PIK3R2 (p110 beta/p85 beta) (Homo sapiens, UniProt P42338); experiment: SelectScreen Adapta; format: biochemical; settings: ATP Km, read-out: Percentage of inhibition
T21 construct: purchased Life Technologies
Description: as §2

DAPK1 = DAPK1 (Homo sapiens, UniProt P53355); experiment: SelectScreen Adapta; format: biochemical; settings: ATP Km, read-out: Percentage of inhibition
Description: as §2

PIP5K1C = target: T22, PIP5K1C (Homo sapiens, UniProt O60331); experiment: SelectScreen Adapta; format: biochemical; settings: ATP 10 µM, read-out: Percentage of inhibition
T22 construct: purchased Life Technologies (SelectScreen Whole Panel service)
Description: as §2

RnDYRK1A = RnDYRK1A (Rattus norvegicus, UniProt Q63470); experiment: ADP-Glo kinase assay; format: biochemical, Rattus norvegicus (Rn)
Description: Kinase activities were determined using the ADP-Glo methodology (ADP-Glo Kinase Assay; Promega) according to the assay described by Nguyen et al.[32] except for MmCLK1. The later was assayed in the following buffer: 10 mM MgCl2, 1 mM EGTA, 1 mM DTT, 25 mM Tris-HCl pH 7.5, 50 µg/ml heparin, 0.15 mg/ml BSA, with 0.027 µg/µl of the following peptide: GRSRSRSRSRSR as substrate.

panel of 486 kinases = experiment: SelectScreen Whole Panel selectivity profile; format: biochemical; settings: 1 µM
Description: as §2

Sequence of CDK9/cyclin K (P50750 whole entry): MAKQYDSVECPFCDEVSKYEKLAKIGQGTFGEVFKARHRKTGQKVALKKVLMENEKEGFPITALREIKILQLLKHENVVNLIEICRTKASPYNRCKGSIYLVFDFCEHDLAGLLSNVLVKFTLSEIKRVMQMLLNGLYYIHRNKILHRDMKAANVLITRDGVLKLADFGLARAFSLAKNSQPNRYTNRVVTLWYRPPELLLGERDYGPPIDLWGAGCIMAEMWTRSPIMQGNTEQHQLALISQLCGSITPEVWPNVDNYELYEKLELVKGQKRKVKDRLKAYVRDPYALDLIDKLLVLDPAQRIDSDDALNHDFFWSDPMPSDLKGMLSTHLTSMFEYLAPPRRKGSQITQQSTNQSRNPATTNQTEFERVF
Sequence of CDK9/cyclin K (O75909 whole entry partner): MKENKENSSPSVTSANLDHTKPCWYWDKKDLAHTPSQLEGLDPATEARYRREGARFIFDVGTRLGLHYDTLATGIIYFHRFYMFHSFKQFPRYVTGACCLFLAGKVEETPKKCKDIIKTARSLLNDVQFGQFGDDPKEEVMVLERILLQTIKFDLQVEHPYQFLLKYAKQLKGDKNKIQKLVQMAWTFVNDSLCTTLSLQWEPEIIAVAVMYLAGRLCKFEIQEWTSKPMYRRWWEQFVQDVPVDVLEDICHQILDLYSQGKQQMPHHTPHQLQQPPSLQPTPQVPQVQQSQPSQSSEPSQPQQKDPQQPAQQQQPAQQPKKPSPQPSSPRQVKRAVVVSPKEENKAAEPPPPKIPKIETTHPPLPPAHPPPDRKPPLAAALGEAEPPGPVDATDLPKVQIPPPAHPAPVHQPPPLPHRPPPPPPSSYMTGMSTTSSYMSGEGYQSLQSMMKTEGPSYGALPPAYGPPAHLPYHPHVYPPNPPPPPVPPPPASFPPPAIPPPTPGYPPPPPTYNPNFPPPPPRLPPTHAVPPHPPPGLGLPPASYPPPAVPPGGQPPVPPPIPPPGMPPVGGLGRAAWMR
T22 sequence (O60331 whole entry): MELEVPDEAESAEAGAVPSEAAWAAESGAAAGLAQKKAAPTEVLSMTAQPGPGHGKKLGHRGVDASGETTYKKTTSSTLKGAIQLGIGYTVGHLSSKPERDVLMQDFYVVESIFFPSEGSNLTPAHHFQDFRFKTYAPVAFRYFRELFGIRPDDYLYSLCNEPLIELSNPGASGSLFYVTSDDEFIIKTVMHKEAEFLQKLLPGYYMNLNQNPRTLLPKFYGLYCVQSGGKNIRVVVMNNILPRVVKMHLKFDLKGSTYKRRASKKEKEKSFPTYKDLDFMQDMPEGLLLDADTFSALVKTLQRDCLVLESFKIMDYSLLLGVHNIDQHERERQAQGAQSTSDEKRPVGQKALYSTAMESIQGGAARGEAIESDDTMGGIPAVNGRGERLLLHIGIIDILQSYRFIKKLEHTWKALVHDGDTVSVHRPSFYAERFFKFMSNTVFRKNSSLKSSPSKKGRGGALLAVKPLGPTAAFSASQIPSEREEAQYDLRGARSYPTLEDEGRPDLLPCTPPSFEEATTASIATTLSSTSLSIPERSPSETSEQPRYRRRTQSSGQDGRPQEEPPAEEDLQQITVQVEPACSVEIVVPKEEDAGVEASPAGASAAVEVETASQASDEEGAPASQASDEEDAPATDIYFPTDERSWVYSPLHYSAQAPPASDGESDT
Sequence of DAPK1 (P53355 whole entry): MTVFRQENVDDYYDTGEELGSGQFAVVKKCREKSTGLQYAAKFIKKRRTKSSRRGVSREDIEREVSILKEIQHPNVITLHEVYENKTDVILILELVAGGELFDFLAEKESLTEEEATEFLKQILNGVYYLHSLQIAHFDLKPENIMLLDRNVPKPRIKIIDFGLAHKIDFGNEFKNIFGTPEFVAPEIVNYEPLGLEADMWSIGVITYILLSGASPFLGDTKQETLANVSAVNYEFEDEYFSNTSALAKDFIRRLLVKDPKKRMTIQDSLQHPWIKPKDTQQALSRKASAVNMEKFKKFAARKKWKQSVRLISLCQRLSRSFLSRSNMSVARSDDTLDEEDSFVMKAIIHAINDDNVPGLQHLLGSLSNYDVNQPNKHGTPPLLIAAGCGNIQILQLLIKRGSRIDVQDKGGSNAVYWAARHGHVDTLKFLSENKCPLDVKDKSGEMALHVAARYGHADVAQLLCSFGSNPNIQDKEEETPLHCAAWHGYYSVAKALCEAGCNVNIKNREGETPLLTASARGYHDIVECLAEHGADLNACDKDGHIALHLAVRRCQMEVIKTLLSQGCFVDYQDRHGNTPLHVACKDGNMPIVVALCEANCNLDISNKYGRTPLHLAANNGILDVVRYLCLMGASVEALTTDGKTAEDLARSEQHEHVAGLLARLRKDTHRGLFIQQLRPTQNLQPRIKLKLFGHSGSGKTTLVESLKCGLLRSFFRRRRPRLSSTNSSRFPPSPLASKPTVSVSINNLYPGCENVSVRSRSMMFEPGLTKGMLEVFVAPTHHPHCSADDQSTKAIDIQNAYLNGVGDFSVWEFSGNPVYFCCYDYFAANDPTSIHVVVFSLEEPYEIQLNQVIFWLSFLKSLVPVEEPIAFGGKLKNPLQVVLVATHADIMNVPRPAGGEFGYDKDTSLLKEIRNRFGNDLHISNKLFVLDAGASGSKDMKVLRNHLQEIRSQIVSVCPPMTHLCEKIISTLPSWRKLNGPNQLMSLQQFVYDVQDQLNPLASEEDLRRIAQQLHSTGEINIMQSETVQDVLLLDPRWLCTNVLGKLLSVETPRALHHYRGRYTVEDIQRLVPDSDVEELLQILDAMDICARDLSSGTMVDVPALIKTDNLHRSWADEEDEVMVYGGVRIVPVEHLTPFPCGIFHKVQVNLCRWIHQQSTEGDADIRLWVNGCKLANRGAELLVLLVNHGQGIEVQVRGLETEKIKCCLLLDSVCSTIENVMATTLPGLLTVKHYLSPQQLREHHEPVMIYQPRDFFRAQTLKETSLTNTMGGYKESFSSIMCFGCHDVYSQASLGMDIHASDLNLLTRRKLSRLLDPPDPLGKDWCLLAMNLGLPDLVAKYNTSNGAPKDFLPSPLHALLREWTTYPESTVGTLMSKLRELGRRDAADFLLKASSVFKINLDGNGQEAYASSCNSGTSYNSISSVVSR
T9 sequence (Q02750 whole entry): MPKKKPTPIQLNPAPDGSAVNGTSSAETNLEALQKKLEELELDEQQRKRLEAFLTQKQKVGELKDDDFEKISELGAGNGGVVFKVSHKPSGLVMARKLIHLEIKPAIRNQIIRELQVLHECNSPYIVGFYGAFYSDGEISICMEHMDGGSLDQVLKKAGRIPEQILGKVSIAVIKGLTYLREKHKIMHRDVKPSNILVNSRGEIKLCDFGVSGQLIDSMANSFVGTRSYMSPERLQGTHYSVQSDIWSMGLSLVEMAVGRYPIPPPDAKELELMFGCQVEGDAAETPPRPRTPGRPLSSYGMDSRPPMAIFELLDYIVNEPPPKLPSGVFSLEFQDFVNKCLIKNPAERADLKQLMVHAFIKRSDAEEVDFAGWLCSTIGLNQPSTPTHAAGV
T18 sequence (Q13873 27-1038): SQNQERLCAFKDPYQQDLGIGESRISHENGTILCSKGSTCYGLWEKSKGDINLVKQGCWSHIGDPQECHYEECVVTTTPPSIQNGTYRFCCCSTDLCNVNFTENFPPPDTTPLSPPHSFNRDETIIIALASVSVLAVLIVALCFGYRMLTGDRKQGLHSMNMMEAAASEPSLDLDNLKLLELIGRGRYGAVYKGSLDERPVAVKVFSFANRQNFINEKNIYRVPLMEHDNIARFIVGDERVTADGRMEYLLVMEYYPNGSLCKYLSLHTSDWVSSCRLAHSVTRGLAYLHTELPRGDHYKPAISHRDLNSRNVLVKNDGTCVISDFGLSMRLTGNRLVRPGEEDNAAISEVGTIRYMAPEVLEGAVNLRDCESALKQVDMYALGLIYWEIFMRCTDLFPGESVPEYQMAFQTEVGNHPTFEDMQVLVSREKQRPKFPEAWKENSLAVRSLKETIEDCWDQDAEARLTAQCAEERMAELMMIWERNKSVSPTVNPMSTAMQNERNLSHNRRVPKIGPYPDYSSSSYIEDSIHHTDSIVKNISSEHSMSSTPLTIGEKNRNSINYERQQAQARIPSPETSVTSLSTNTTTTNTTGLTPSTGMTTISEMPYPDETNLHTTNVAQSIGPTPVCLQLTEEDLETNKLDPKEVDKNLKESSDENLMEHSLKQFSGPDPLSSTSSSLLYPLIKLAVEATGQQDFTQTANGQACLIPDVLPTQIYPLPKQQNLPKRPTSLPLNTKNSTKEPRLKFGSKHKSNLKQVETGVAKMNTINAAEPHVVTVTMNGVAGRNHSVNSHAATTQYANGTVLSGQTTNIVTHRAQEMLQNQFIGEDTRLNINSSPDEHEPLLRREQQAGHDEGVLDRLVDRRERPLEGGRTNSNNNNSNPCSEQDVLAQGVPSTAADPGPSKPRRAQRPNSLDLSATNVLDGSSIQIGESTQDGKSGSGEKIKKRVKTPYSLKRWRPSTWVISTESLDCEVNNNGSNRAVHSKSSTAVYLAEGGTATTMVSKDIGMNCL
T12 sequence (P36507 whole entry): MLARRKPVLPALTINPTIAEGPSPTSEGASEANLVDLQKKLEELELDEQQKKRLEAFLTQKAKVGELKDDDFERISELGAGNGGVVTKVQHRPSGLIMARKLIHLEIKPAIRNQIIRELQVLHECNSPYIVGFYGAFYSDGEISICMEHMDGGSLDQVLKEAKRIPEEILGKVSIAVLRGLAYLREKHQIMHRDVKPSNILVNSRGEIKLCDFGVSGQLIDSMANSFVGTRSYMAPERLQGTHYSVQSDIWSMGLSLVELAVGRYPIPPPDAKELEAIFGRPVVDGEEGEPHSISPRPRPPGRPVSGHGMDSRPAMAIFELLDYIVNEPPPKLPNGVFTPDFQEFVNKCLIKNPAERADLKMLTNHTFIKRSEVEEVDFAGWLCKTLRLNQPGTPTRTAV

With `COc1ccc2[nH]c3c(=O)[nH]c4ccc(O)cc4c3c2c1` [Compound 55, 2-Hydroxy-10-methoxy-5,7-dihydro-6H-indolo[2,3-c]quinolin-6-one] as the compound, how does the “HCT116 spheroid cell viability” value (HCT116 spheroids) read?
Its value is “marked dose-dependent effect”.

What about the “U-2 OS spheroid cell viability” value (U-2 OS spheroids) of the same compound?
The value was “marked dose-dependent effect”.

What about the inhibition at 1 µM (LIMK1) of the same compound?
Its inhibition at 1 µM is 23%.

What about the inhibition at 1 µM (CDK8/cyclin C) of the same compound?
The inhibition at 1 µM was 40%.

What about the inhibition at 1 µM (AMPK (A2/B2/G1)) of the same compound?
Its inhibition at 1 µM is 70%.

And the inhibition at 1 µM (CAMKK1 (CAMKKA))?
Its inhibition at 1 µM is 8%.

What about the inhibition at 1 µM (ULK3) of the same compound?
Its inhibition at 1 µM is 45%.

What about the inhibition at 1 µM (STK33) of the same compound?
The inhibition at 1 µM was 46%.

What about the inhibition at 1 µM (AMPK (A2/B2/G2)) of the same compound?
Its inhibition at 1 µM is 80%.

What about the inhibition at 1 µM (STK39 (STLK3)) of the same compound?
The inhibition at 1 µM was 24%.

And the inhibition at 1 µM (EPHA3)?
The inhibition at 1 µM was 13%.

And the inhibition at 1 µM (MAP2K1 (MEK1))?
Its inhibition at 1 µM is 98%.

And the inhibition at 1 µM (STK16 (PKL12))?
Its inhibition at 1 µM is 51%.

What about the inhibition at 1 µM [1] of the same compound?
Its inhibition at 1 µM is 98%.

And the inhibition at 1 µM (WNK1)?
The inhibition at 1 µM was 7%.

And the inhibition at 1 µM (MAP2K2 (MEK2))?
The inhibition at 1 µM was 94%.

And the inhibition at 1 µM (RIPK2)?
Its inhibition at 1 µM is 13%.

And the inhibition at 1 µM (CDK9/cyclin K)?
Its inhibition at 1 µM is 59%.

And the inhibition at 1 µM (MAP2K6 (MKK6))?
Its inhibition at 1 µM is 2%.

And the inhibition at 1 µM (CLK4)?
Its inhibition at 1 µM is 100%.

And the inhibition at 1 µM (AMPK (A1/B1/G3))?
Its inhibition at 1 µM is 82%.

And the inhibition at 1 µM (MAPK8 (JNK1))?
The inhibition at 1 µM was 43%.

And the inhibition at 1 µM [2]?
The inhibition at 1 µM was 98%.

What about the inhibition at 1 µM (MAPK15 (ERK7)) of the same compound?
Its inhibition at 1 µM is 58%.

And the inhibition at 1 µM (BMPR2)?
The inhibition at 1 µM was 116%.

And the inhibition at 1 µM [3]?
The inhibition at 1 µM was 18%.

What about the inhibition at 1 µM (TEC) of the same compound?
The inhibition at 1 µM was 4%.

What about the inhibition at 1 µM [4] of the same compound?
The inhibition at 1 µM was 33%.

What about the inhibition at 1 µM (DAPK1) of the same compound?
The inhibition at 1 µM was 57%.

And the inhibition at 1 µM (PIP5K1C)?
Its inhibition at 1 µM is 49%.

And the “Selectivity index DYRK/Haspin” value (RnDYRK1A; IC50 DYRK1A/IC50 Haspin)?
Its value is 65.

What about the IC50 (RnDYRK1A; dose-response curve, each point in duplicate, read-out: Kinase inhibition (IC50) DYRK1A) of the same compound?
Its IC50 is 130 nM.

What about the remaining activity (RnDYRK1A; mean n = 2, % of maximum activity of DMSO control, read-out: % Residual activity at 1 μM DYRK1A) of the same compound?
Its remaining activity is 2%.

What about the “Number of the 486 kinases inhibited by >50%” value (panel of 486 kinases) of the same compound?
Its value is 159.
